For the assay, the target named is T1, LRRK2^KW (Homo sapiens, UniProt Q5S007).
T1 construct: LRRK2 R1847 to E2527; His6-Z-tag (TEV cleavable) (N, cleaved yes); host or cells: Sf9 insect cells (baculovirus)
T1 sequence (Q5S007 1847-2527): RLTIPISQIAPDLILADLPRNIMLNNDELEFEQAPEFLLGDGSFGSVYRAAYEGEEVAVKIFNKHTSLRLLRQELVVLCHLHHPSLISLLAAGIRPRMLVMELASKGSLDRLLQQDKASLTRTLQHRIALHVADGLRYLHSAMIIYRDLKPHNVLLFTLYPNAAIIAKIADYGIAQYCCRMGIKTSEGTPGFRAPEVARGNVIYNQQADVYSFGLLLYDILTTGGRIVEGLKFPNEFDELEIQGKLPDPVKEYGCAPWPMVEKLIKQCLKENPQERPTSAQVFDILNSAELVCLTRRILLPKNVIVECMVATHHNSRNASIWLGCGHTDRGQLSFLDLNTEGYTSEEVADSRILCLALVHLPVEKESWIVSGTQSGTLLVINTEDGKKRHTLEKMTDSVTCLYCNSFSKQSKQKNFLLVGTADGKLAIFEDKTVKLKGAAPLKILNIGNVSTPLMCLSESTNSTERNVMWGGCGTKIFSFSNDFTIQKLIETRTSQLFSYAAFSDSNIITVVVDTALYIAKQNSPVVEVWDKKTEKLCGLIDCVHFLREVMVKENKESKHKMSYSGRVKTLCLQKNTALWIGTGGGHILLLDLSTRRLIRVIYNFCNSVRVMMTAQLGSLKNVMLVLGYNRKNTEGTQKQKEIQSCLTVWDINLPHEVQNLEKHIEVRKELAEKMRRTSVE
The assay is described as follows: DSF thermal stabilization of LRRK2^KW. It is filed as binding. The conditions noted are these: screen of 31 type-II inhibitors, Table S1. On the procedure:
To characterize binding between small molecules and LRRK2^KW, induced thermal stabilization was measured by DSF according to previously established protocols ([47]). In brief, LRRK2^KW was diluted to 4 μM in 20 mM Hepes (pH 7.4), 150 mM NaCl, 0.5 mM TCEP, 0.5% glycerol, 20 μM GDP, and 2.5 mM MgCl2, and SYPRO Orange was added (1:1000, MilliporeSigma). Inhibitor (10 μM) to be tested was added to a final sample volume of 20 μl per well of a 96-well plate (white, Starlab). […] The fluorescence was plotted against the temperature, and the melting point (Tm) was determined as the minimum of the first derivative relative to the control.
As for `CCN1CCN(Cc2ccc(NC(=O)c3ccc(C)c(NC(=O)c4cncc(-c5cccs5)c4)c3)cc2C(F)(F)F)CC1` [ALW-II-41-27, reference compound], the “dTm LRRK2(KW) [K]” value is reported as -0.5 K.
In the case of `Cc1csc(-c2nnc(Nc3ccc(Oc4ncccc4-c4ccnc(N)n4)cc3)c3ccccc23)c1` [AMG 900, reference compound] it was 4.5 K.
In the case of `CCN1CCN(Cc2ccc(NC(=O)Nc3ccc(Oc4cc(NC)ncn4)cc3)cc2C(F)(F)F)CC1` [AST-487, reference compound] it was 10 K.
For `Cc1ccc(NC(=O)c2cccc(C(C)(C)C#N)c2)cc1Nc1ccc2ncn(C)c(=O)c2c1` [AZ 628, reference compound], the “dTm LRRK2(KW) [K]” value is on record as -0.5 K.
With `N#CC1(c2ccc(NC(=O)c3cccnc3NCc3ccncc3)cc2)CCCC1` [Apatinib, reference compound], the “dTm LRRK2(KW) [K]” value is recorded as -1 K.
The same measure for `CNC(=O)c1ccccc1Sc1ccc2c(/C=C/c3ccccn3)n[nH]c2c1` [Axitinib, reference compound]: 7.5 K.
As to `Cc1ccc(-n2nc(C(C)(C)C)cc2NC(=O)Nc2ccc(OCCN3CCOCC3)c3ccccc23)cc1` [BIRB-796, reference compound], the “dTm LRRK2(KW) [K]” value is recorded as 0 K.
In the case of `CCOc1ccn(-c2ccc(F)cc2)c(=O)c1C(=O)Nc1ccc(Oc2ccnc(N)c2Cl)c(F)c1` [BMS 777607, reference compound] it was 6.8 K; in that of `COc1cc2nccc(Oc3ccc(NC(=O)C4(C(=O)Nc5ccc(F)cc5)CC4)cc3)c2cc1OC` [Cabozantinib, reference compound], 7.5 K.
The same measure for `CN1CCN(C2CCN(C(=O)Nc3cc(Oc4ccc(NC(=O)C5(C(=O)Nc6ccc(F)cc6)CC5)c(F)c4)ccn3)CC2)CC1` [Golvatinib, reference compound]: 0.5 K; for `Cc1ccc(NC(=O)c2ccc(CN3CCN(C)CC3)cc2)cc1Nc1nccc(-c2cccnc2)n1` [Imatinib, reference compound]: 0 K; for `COc1cc(Oc2ccnc3cc(OC)c(OC)cc23)ccc1NC(=O)NC(C)c1nccs1` (centres unmarked) [KI20227, reference compound]: 3 K.
The same measure for `Cc1ccc(F)c(NC(=O)Nc2ccc(-c3cccc4[nH]nc(N)c34)cc2)c1` [Linifanib, reference compound]: 5.8 K; for `Cc1ccc(NC(=O)c2ccc(CN3CCN(C)CC3)cc2)cc1Nc1nc(-c2cccnc2)cs1` [Masitinib, reference compound]: 0 K.
As to `CC1(C)CNc2cc(NC(=O)c3cccnc3NCc3ccncc3)ccc21` [Motesanib, reference compound], the “dTm LRRK2(KW) [K]” value was -0.5 K.
The same measure for `Cc1ccc(C(=O)Nc2cccc(C(F)(F)F)c2)cc1Nc1nc(-c2cccnc2)nc2c1cnn2C` [NVP-BHG712, reference compound]: -0.5 K.
In the case of `Cc1cn(-c2cc(NC(=O)c3ccc(C)c(Nc4nccc(-c5cccnc5)n4)c3)cc(C(F)(F)F)c2)cn1` [Nilotinib, reference compound] it was -2.5 K; in that of `COC(=O)c1ccc2c(c1)NC(=O)/C2=C(\Nc1ccc(N(C)C(=O)CN2CCN(C)CC2)cc1)c1ccccc1` [Nintedanib, reference compound], 5 K.
The same measure for `O=C(Nc1ccc(OC(F)(F)F)cc1)c1sccc1NCc1ccnc2ccccc12` [OSI-930, reference compound]: 0 K; for `Cc1ccc(-n2nc(C(C)(C)C)cc2NC(=O)Nc2cc(COc3cccnc3)[nH]n2)cc1` [PF-4618433, reference compound]: 11 K.
In the case of `FC(F)(F)c1ccc(CNc2ccc(Cc3c[nH]c4ncc(Cl)cc34)cn2)cn1` [Pexidartinib, reference compound], the “dTm LRRK2(KW) [K]” value stood at 6.8 K.
In the case of `CC(C)(C)c1cc(NC(=O)Nc2ccc(-c3cn4c(n3)sc3cc(OCCN5CCOCC5)ccc34)cc2)no1` [Quizartinib, reference compound] it was 3.5 K; in that of `CNC(=O)c1cc(Oc2ccc(NC(=O)Nc3ccc(Cl)c(C(F)(F)F)c3)c(F)c2)ccn1` [Regorafinib, reference compound], 5.5 K.
In the case of `COc1cc2nccc(Oc3ccc(NC(=O)Nc4cc(C)on4)c(Cl)c3)c2cc1OC` [Tivozanib (AV-951), reference compound] it was 11.5 K.
In the case of `Cc1ccc(NC(=O)c2cccc(N(C)C)c2)cc1NC(=O)c1ccc(O)cc1` [ZM336372, reference compound] it was -1 K; in that of `COc1cc2c(Nc3ccc(NC(=O)c4ccccc4)cc3)ncnc2cc1OCCCN1CCOCC1` [ZM447439, reference compound], 6.5 K.

The record behind these values is publication PMC12136037, “Type II kinase inhibitors that target Parkinson’s disease–associated LRRK2” (Science Advances, 2025).
